Assays:
T-47D = experiment: Caspase cascade activation (N-(Ac-DEVD)-N'-ethoxycarbonyl-R110 fluorogenic substrate) in T-47D cells; format: cell-based; settings: T47D; human breast cancer cell line T-47D, 24 hours incubation with compound, 3 hour substrate incubation; read-out: Caspase Potency EC50 (nM) T-47D
Method: (§1) Human breast cancer cell lines T-47D and ZR-75-1 were grown according to media component mixtures designated by American Type Culture Collection +10% fetal calf sera (FCS) (Life Technologies, Inc.) in a 5% CO2-95% humidity incubator as 37° C. The T-47 and ZR-75-1 cells were maintained at a cell density between 30 and 80% confluency at a cell density of 0.1 to 0.6×10^6 cells/mL. Cells were harvested at 600 xg and resuspended at 0.65×10^6 cells/mL into appropriate media +10% FCS. An aliquot of 45 μL of cells was added to a well of a 96-well microtiter plate containing 5 μL of a 10% DMSO in RPMI-1640 media solution containing 1.6 to 100 μM of test compound (0.16 to 10 μM final).
(§2) An aliquot of 45 μL of cells was added to a well of a 96-well microtiter plate containing 5 μL of a 10% DMSO in RPMI-1640 media solution without test compound as the control sample. The samples were mixed by agitation and then incubated at 37° C. for 24 hours in a 5% CO2-95% humidity incubator. After incubation, the samples were removed from the incubator and 50 μL of a solution w containing […] of N-(Ac-DEVD)-N′-ethoxycarbonyl-R110 (SEQ ID NO:1) fluorogenic substrate (Cytovia, Inc.; WO99/18856), 20% sucrose (Sigma), 20 mM dithiothreitol (DTT) (Sigma), 200 mM NaCl (Sigma), 40 mM Na piperazine-N,N′-bis[2-ethanesulfonic acid] (PIPES) buffer pH 7.2 (Sigma), and 500 μg/mL lysolecithin (Calbiochem) was added. The samples were mixed by agitation and incubated at room temperature. Using a fluorescent plate reader (Model 1420 Wallac Instruments), an initial reading (T=0) was made approximately 1-2 minutes after addition of the substrate solution, employing excitation at 485 nm and emission at 530 nm, to determine the background fluorescence of the control sample. After the 3 hour incubation, the samples were read for fluorescence as above (T=3 hours).
(§3) The Relative Fluorescence Unit (RFU) values were used to calculate the sample readings as follows: RFU(T=3h)−Control RFU(T=0)=Net RFU(T=3h)
(§4) The level of caspase cascade activation was determined by the ratio of the net RFU value for the test compound to that of the control samples. The EC50 (nM) was determined by a sigmoidal dose-response calculation (Prism 2.0, GraphPad Software, Inc.). The compounds of the invention were determined to have caspase cascade activating effects by proceeding as in Example 8.

ZR-75-1 = experiment: Caspase cascade activation (N-(Ac-DEVD)-N'-ethoxycarbonyl-R110 fluorogenic substrate) in ZR-75-1 cells; format: cell-based; settings: human breast cancer cell line ZR-75-1, 24 hours incubation with compound, 3 hour substrate incubation; read-out: Caspase Potency EC50 (nM) ZR-75-1
Method: as §1, §2, §3, §4

SMILES | EC50 (T-47D) | EC50 (ZR-75-1)
COc1cccc(C2CC(c3c(O)cc(C)oc3=O)=NCCS2)c1 (stereo not shown) [Compound 72, 4-hydroxy-3-[7-(3-methoxy-phenyl)-2,3,6,7-tetrahydro-[1,4]thiazepin-5-yl]-6-methyl-pyran-2-one] | 3050 nM | 1950 nM
Cc1cc(O)c(C2=NCCSC(c3ccc(Cl)c(Cl)c3)C2)c(=O)o1 (stereo not shown) [Compound 79, 3-[7-(3,4-dichloro-phenyl)-2,3,6,7-tetrahydro-[1,4]thiazepin-5-yl]-4-hydroxy-6-methyl-pyran-2-one] | 557 nM | 349 nM

Second part, the compound after the results:

EC50 (T-47D) | EC50 (ZR-75-1) | SMILES
345 nM | 163 nM | CSc1ccc(C2CC(c3c(O)cc(C)oc3=O)=NCCS2)cc1 (stereo not shown) [Compound 70, 4-hydroxy-6-methyl-3-[7-(4-methylsulfanyl-phenyl)-2,3,6,7-tetrahydro-[1,4]thiazepin-5-yl]-pyran-2-one]
3270 nM | 2080 nM | Cc1cc(O)c(C2=NCCSC(c3ccccc3Br)C2)c(=O)o1 (stereo not shown) [Compound 74, 3-[7-(2-bromo-phenyl)-2,3,6,7-tetrahydro-[1,4]thiazepin-5-yl]4-hydroxy-6-methyl-pyran-2-one]
6930 nM | 4210 nM | Cc1ccc(C2CC(c3c(O)cc(C)oc3=O)=Nc3ccccc3S2)cc1 (stereo not shown) [Compound 85, 4-hydroxy-6-methyl-3-(2-p-tolyl-2,3-dihydro-benzo[b][1,4]thiazepin-4-yl)-pyran-2-one]
